Laboratory results published in patent publication US20240016762A1, “DUAL ANALGESIC/ANTI-INFLAMMATORY COMPOSITIONS COMPRISING CB2 RECEPTOR AGONISTS, COMBINATIONS, AND METHODS OF USE THEREOF” (Altus Formulation lnc., priority 2020, published 2024).

What was measured:
[1] = system: corneal cauterization and capsaicin challenge (corneal pain); details: cited from earlier work; for ED50: Thapa et al (2018)
[2] = system: plantar incision in the hind paw (post-operative incisional pain); assay: Rat postoperative incisional (plantar incision) pain model, von Frey withdrawal threshold; details: iv; for ED50: Rattus norvegicus, read-out: ED50 (median effective dose)
Protocol: The model developed was based on that described by Labuda et al. (supra). […] All test articles were administered intravenously via the tail vein as a single bolus.
Male Sprague Dawley rats (Charles River, St-Constant, Qc, Canada), were purchased and housed in auto-ventilated cages in a climate-controlled room on a 12-hour light/dark cycle. The animals were allowed free access to food pellets and water and weighed 200-225 g at the time of the testing.
Post-operative incisional pain was induced via a 1 cm plantar incision in the hind paw. Briefly, under deep anesthesia with isoflurane the plantar aspect of the hind paw was cleaned and sterilized using a 10% povidone-iodine solution after which a 1 cm longitudinal incision was made with a number 11 blade. The incision penetrated through the skin and fascia of the plantar aspect of the foot. The plantaris muscle was also elevated and incised longitudinally, the muscle origin remaining intact. After hemostatis with gentle pressure, the skin was closed with 2 mattress sutures of 5-0 nylon and the wound site covered with an antibacterial ointment. The rats were then placed in clear Plexiglas cages with plastic grid floors (8×8 mm) and allowed to acclimate.
The pain response was evaluated using the von Frey mechanical stimulation test employing von Frey filaments applied vertically to an area adjacent to the wound. […] The resistance to bending (reflective of the applied pressure) of the filament causing a withdrawal response was then recorded as the withdrawal threshold. […] After each filament application, animals were given a 5 minute test-free period after which the test was repeated the lowest force required for a withdrawal response from the 2 tests being recorded as the withdrawal threshold (WT). […]
The paw withdrawal threshold was again measured at 0.25, 1, 2, 3, 4, 5, 6, 7, 8 hours post treatment administration animal responses being plotted as withdrawal response/time curves for each dose given as before.

CB2 receptor = CB2 receptor (Homo sapiens, UniProt P34972); details: Smoum et al. (2015); cited from earlier work
Sequence of CB2 receptor (P34972 whole entry): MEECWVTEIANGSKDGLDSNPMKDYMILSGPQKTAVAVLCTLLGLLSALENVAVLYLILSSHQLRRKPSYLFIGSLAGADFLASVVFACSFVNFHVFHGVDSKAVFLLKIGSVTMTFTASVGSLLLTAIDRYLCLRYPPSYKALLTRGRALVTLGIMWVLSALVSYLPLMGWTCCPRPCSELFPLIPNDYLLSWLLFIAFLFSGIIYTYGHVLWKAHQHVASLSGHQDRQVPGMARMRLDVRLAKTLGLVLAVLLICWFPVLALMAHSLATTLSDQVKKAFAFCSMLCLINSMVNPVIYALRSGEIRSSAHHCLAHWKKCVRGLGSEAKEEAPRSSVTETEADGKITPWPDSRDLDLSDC

## CCCCCc1cc(O)c2c(c1)OC(C)(C)[C@@H]1CC=C(C)C[C@@H]21 [A8 THC]
[1]
  ED50: 1%

## C=C(C)[C@@H]1CCC(C)=C[C@H]1c1c(O)cc(CCCCC)cc1O [CBD]
[1]
  ED50: 5%

## Cc1ccc(-c2cc(C(F)(F)F)nn2-c2ccc(S(N)(=O)=O)cc2)cc1 [celecoxib]
[2]
  ED50: 22.3 mg/kg

## CCCCCCC(C)(C)c1cc(OC)c([C@@H]2C=C(CO)[C@@H]3C[C@H]2C3(C)C)c(OC)c1 [HU-308]
[1]; 1.5% solution in soybean oil, Thapa et al. (2018)
  Pain score: 17
[1]; doses lower than 1.5%, Thapa et al. (2018)
  Analgesic effect: failed to generate an analgesic effect

## CCCCCCC(C)(C)c1cc(OC)c([C@@H]2C=C(CO)[C@@H]3C[C@H]2C3(C)C)c(OC)c1 (single isomer, unassigned) [Batch E2]
CB2 receptor
  Affinity for CB2 receptor relative to E1: lower affinity for CB2 receptor than E1

## O=C(c1ccccc1)c1ccc2n1CCC2C(=O)O (centres unmarked) [Ketorolac, ketorolac]
[2]
  ED50: 23.1 mg/kg
  Dose/response relationship of AUC0.25-8 hr: clear dose response effect
